Data: US9073884B2, “Anti-inflammatory and quorum sensing inhibition compounds and methods of making and using them” (The Regents of the University of California, priority 2010, dated 2015)

Experiments:
[1] = test system: Escherichia coli JB525 (E. coli MT102 harboring the gfp plasmid pJBA132); assay: Escherichia coli JB525 assay (quorum sensing inhibition); format: cell-based
[2] = test system: vibrio harveyi; assay: vibrio harveyi assay (quorum sensing inhibition); format: cell-based

## O=C(/C=C/CCl)O[C@@H]1COC(=O)C1 [Honaucin A]
[1]
  inhibition of AI-1 and AI-2 mediated quorum sensing: good inhibition
[2]
  inhibition of AI-1 and AI-2 mediated quorum sensing: good inhibition
